Structures are written as SMILES.

The nature of the data set: Stability of cortisol in human eccrine sweat at room temperature.

Description: To test the stability of cortisol in human eccrine sweat in order to improve sweat collection method and procedures, aliquots of the same sweat samples were left at room temperature for a duration of 3 hours, with each aliquots analyzed every 30 minutes in first hour and every hour afterwards.
Spiked human eccrine sweat samples were tested over a period of 3 hours at room temperature.

Consider `C[C@]12CCC(=O)C=C1CC[C@@H]1[C@@H]2[C@@H](O)C[C@@]2(C)[C@H]1CC[C@]2(O)C(=O)CO` [cortisol, 4-PREGNEN-11β, 17, 21-TRIOL-3, 20-DIONE], for which the “cortisol loss in spiked human eccrine sweat” value (period of 3 hours at room temperature) was “No measurable cortisol loss”. The Concentration was found to be 29.191 ng/mL (spiked sweat, 0 minutes at room temperature); 36.802 ng/mL (spiked sweat, 30 minutes at room temperature); 30.807 ng/mL (spiked sweat, 1 hour at room temperature); 30.228 ng/mL (spiked sweat, 2 hours at room temperature); 29.515 ng/mL (spiked sweat, 3 hours at room temperature); 3.488 ng/mL (unspiked human eccrine sweat).

Values taken from patent publication US10996205B2, “Stress biomarkers and related non-invasive detection methods” (ARIZONA BOARD OF REGENTS ON BEHALF OF THE UNIVERSITY OF …, priority 2015, dated 2021).
